Legend:
[1] = biological target: T1, recombinant human mGluR4a receptors (Homo sapiens, UniProt Q14833); assay: mGluR4 assay on HEK-expressing human mGluR4 (fluorescent cell based Ca2+ mobilization assay, FLIPR); conditions: HEK-293 cells expressing hmGluR4; enhancement of EC25 glutamate response; mean of at least three independent experiments in duplicate; read-out: Ca^2+ Flux (mean EC50)
T1 construct: expressed in transfected cells
Source text: mGluR4 Assay on HEK-Expressing Human mGluR4 The compounds of the present invention are positive allosteric modulators of mGluR4 receptor. Their activity was examined on recombinant human mGluR4a receptors by detecting changes in intracellular Ca^2+ concentration, using the fluorescent Ca^2+-sensitive dye Fluo-4-(AM) and a Fluorometric Imaging Plate Reader (FLIPR, Molecular Devices, Sunnyvale, Calif.) The cDNA encoding the human metabotropic glutamate receptor (hmGluR4), (accession number NM_000841.1, NCBI Nucleotide database browser), was subcloned into an expression vector containing also the hygromycin resistance gene. In parallel, the cDNA encoding a G protein allowing redirection of the activation signal to intracellular calcium flux was subcloned into a different expression vector containing also the puromycin resistance gene. Transfection of both these vectors into HEK293 cells with PolyFect reagent (Qiagen) according to supplier's protocol, and hygromycin and puromycin treatment allowed selection of antibiotic resistant cells which had integrated stably one or more copies of the plasmids. Positive cellular clones expressing hmGluR4 were identified in a functional assay measuring changes in calcium fluxes in response to glutamate or selective known mGluR4 orthosteric agonists and antagonists. HEK-293 cells expressing hmGluR4 were maintained in media containing DMEM, dialyzed Fetal Calf Serum (10%), Glutamax™ (2 mM), Penicillin (100 units/mL), Streptomycin (100 μg/mL), Geneticin (100 μg/mL) and Hygromycin-B (40 μg/mL) and puromycin (1 μg/mL) at 37° C./5% CO2. Human mGluR4 HEK-293 cells were plated out 24 hours prior to FLIPR^384 assay in black-walled, clear-bottomed, poly-L-ornithine-coated 384-well plates at a density of 25,000 cells/well in a glutamine/glutamate free DMEM medium containing foetal bovine serum (10%), penicillin (100 units/mL) and streptomycin (100 μg/mL) at 37 C/5% CO2. On the day of the assay, the medium was aspirated and the cells were loaded with a 3 μM solution of Fluo-4-AM (LuBioScience, Lucerne, Switzerland) in 0.03% pluronic acid. After 1 hour at 37 C/5% CO2, the non incorporated dye was removed by washing cell plate with the assay buffer and the cells were left in the dark at room temperature for six hours before testing. All assays were performed in a pH 7.4 buffered-solution containing 20 mM HEPES, 143 mM NaCl, 6 mM KCl, 1 mM MgSO4, 1 mM CaCl2, 0.125 mM sulfapyrazone, 0.1% glucose. After 10 s of basal fluorescence recording, various concentrations of the compounds of the invention were added to the cells. Changes in fluorescence levels were first monitored for 180 s in order to detect any agonist activity of the compounds. Then the cells were stimulated by an EC25 glutamate concentration for an additional 110 s in order to measure enhancing activities of the compounds of the invention. EC25 glutamate concentration is the concentration giving 25% of the maximal glutamate response. The concentration-response curves of representative compounds of the present invention were generated using the Prism GraphPad software (Graph Pad Inc, San Diego, USA). The curves were fitted to a four-parameter logistic equation: (Y=Bottom+(Top−Bottom)/(1+10^((Log EC50−X)*Hill Slope) allowing the determination of EC50 values. The Table 5 below represents the mean EC50 obtained from at least three independent experiments of selected molecules performed in duplicate.

T1 sequence (Q14833 33-912): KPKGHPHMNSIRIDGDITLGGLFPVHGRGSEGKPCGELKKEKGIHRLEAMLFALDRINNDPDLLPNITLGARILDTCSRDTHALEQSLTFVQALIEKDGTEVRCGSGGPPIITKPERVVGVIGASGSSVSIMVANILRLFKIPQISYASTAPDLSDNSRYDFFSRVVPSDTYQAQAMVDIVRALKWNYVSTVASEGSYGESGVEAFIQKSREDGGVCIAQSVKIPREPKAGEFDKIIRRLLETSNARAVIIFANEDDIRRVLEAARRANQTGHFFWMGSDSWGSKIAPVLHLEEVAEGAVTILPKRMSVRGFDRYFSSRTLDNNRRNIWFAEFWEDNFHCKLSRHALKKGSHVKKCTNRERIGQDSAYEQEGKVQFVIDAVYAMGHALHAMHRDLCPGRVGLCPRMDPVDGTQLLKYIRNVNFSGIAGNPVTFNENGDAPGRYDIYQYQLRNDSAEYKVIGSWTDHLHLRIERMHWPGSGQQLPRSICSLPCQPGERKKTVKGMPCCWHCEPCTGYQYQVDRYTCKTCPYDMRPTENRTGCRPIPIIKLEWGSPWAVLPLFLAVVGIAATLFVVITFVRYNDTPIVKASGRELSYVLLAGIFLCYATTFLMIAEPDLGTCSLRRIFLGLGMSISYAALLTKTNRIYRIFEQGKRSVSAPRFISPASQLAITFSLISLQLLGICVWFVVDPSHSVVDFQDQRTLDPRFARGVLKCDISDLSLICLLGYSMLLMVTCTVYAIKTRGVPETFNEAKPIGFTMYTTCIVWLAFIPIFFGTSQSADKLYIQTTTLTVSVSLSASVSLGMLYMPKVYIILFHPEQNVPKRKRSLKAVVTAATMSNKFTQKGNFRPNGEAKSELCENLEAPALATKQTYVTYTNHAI

Row | SMILES | melting point | EC50 [1] [µM]
1 | Cc1sc(Nc2cccc(F)n2)nc1-c1cnn(C(N)=O)c1 | 230 °C (dec.) | –
2 | Cc1n[nH]cc1-c1nsc(Nc2ccccc2)n1 [Compound 1-1, 3-(3-methyl-1H-pyrazol-4-yl)-N-phenyl-1,2,4-thiadiazol-5-amine] | – | 1 to 10
3 | CC(=O)n1cc(-c2nsc(Nc3ccccc3)n2)c(C)n1 [Compound 1-2, 1-(3-Methyl-4-(5-(phenylamino)-1,2,4-thiadiazol-3-yl)-1H-pyrazol-1-yl)ethanone] | 204 to 208 °C | 1 to 10
4 | Cc1n[nH]cc1-c1nsc(Nc2ccccc2Cl)n1 [Compound 1-3, N-(2-Chlorophenyl)-3-(3-methyl-1H-pyrazol-4-yl)-1,2,4-thiadiazol-5-amine] | 180 to 182 °C | 1 to 10
5 | Cc1n[nH]cc1-c1nsc(Nc2ccccc2F)n1 [Compound 1-4, N-(2-Fluorophenyl)-3-(3-methyl-1H-pyrazol-4-yl)-1,2,4-thiadiazol-5-amine] | – | 0.5 to 1
6 | Cc1n[nH]cc1-c1nc(Nc2ccccn2)sc1C [Compound 1-15, 5-Methyl-4-(3-methyl-1H-pyrazol-4-yl)-N-(pyridin-2-yl)thiazol-2-amine] | 218 °C | –
7 | Cc1n[nH]cc1-c1csc(Nc2cc(F)ccc2F)n1 [Compound 1-17, N-(2,5-Difluorophenyl)-4-(3-methyl-1H-pyrazol-4-yl)thiazol-2-amine] | 196 to 199 °C | –
8 | Cc1ccnc(Nc2nc(-c3cn[nH]c3)c(C)s2)c1 [Compound 1-19, 5-Methyl-N-(4-methylpyridin-2-yl)-4-(1H-pyrazol-4-yl)thiazol-2-amine] | 274 °C | –
9 | Cc1sc(Nc2ncc(F)cc2F)nc1-c1cn[nH]c1 [Compound 1-20, N-(3,5-Difluoropyridin-2-yl)-5-methyl-4-(1H-pyrazol-4-yl)thiazol-2-amine] | > 300 °C | –
10 | Cc1ccnc(Nc2nc(-c3c[nH]nc3C)cs2)c1 [Compound 1-21, 4-(3-Methyl-1H-pyrazol-4-yl)-N-(4-methylpyridin-2-yl)thiazol-2-amine] | 276 to 278 °C | –
11 | CCc1sc(Nc2ccccn2)nc1-c1cn[nH]c1 [Compound 1-22, 5-Ethyl-4-(1H-pyrazol-4-yl)-N-(pyridin-2-yl)thiazol-2-amine] | 243 to 246 °C | –
12 | Cc1cccc(Nc2nc(-c3c[nH]nc3C)cs2)n1 [Compound 1-23, 4-(3-Methyl-1H-pyrazol-4-yl)-N-(6-methylpyridin-2-yl)thiazol-2-amine] | 295 °C (dec.) | –
13 | Cc1sc(Nc2ccc(F)cn2)nc1-c1cn[nH]c1 [Compound 1-24, N-(5-Fluoropyridin-2-yl)-5-methyl-4-(1H-pyrazol-4-yl)thiazol-2-amine] | 320 °C | –
14 | Cc1sc(Nc2ccccn2)nc1-c1cnn(C(=O)C(C)C)c1 [Compound 1-26, 2-Methyl-1-(4-(5-methyl-2-(pyridin-2-ylamino)thiazol-4-yl)-1H-pyrazol-1-yl)propan-1-one] | 168 °C | –
15 | Cc1sc(Nc2ccccn2)nc1-c1cnn(C(=O)C2CCCCC2)c1 [Compound 1-28, Cyclohexyl(4-(5-methyl-2-(pyridin-2-ylamino)thiazol-4-yl)-1H-pyrazol-1-yl)methanone] | 140 to 144 °C | –
16 | Cc1sc(NC2CCCCC2)nc1-c1cn[nH]c1 [Compound 1-29, N-Cyclohexyl-5-methyl-4-(1H-pyrazol-4-yl)thiazol-2-amine] | 205 to 207 °C | –
17 | Cc1cccc(Nc2nc(-c3cnn(C(=O)C(C)C)c3)c(C)s2)n1 [Compound 1-30, 2-Methyl-1-(4-(5-methyl-2-(6-methylpyridin-2-ylamino)thiazol-4-yl)-1H-pyrazol-1-yl)propan-1-one] | 159 to 160 °C | –
18 | Cc1sc(Nc2ccccn2)nc1-c1cnn(C(=O)N2CCCCC2)c1 [Compound 1-34, (4-(5-Methyl-2-(pyridin-2-ylamino)thiazol-4-yl)-1H-pyrazol-1-yl)(piperidin-1-yl)methanone] | 137 to 138 °C | –
19 | c1ccc(Nc2nc(-c3cn[nH]c3)ns2)nc1 [Compound 1-35, 3-(1H-Pyrazol-4-yl)-N-(pyridin-2-yl)-1,2,4-thiadiazol-5-amine] | 300 °C (dec.) | –
20 | CC(C)C(=O)n1cc(-c2nsc(Nc3ccccn3)n2)cn1 [Compound 1-36, 2-Methyl-1-(4-(5-(pyridin-2-ylamino)-1,2,4-thiadiazol-3-yl)-1H-pyrazol-1-yl)propan-1-one] | 248 to 254 °C | –
21 | Cc1sc(NC2CCCC2)nc1-c1cn[nH]c1 [Compound 1-37, N-Cyclopentyl-5-methyl-4-(1H-pyrazol-4-yl)thiazol-2-amine] | 197 °C | –
22 | Cc1cccc(Nc2nc(-c3cn[nH]c3)ns2)n1 [Compound 1-38, N-(6-Methylpyridin-2-yl)-3-(1H-pyrazol-4-yl)-1,2,4-thiadiazol-5-amine] | 276 °C | –
23 | Cc1sc(Nc2cnccn2)nc1-c1cn[nH]c1 [Compound 1-39, 5-Methyl-N-(pyrazin-2-yl)-4-(1H-pyrazol-4-yl)thiazol-2-amine] | 252 °C | –
24 | Cc1cccc(Nc2nc(-c3c[nH]nc3C)ns2)n1 [Compound 1-40, 3-(3-Methyl-1H-pyrazol-4-yl)-N-(6-methylpyridin-2-yl)-1,2,4-thiadiazol-5-amine] | > 300 °C | –

Results, then the compound that gave them:

Row | melting point | EC50 [1] [µM] | SMILES
25 | 285 °C (dec.) | – | Cc1n[nH]cc1-c1nsc(Nc2cccc(Cl)n2)n1 [Compound 1-41, N-(6-Chloropyridin-2-yl)-3-(3-methyl-1H-pyrazol-4-yl)-1,2,4-thiadiazol-5-amine]
26 | 317 to 319 °C | – | Clc1cccc(Nc2nc(-c3cn[nH]c3)ns2)n1 [Compound 1-42, N-(6-Chloropyridin-2-yl)-3-(1H-pyrazol-4-yl)-1,2,4-thiadiazol-5-amine]
27 | > 300 °C | – | Cc1n[nH]cc1-c1nsc(Nc2ncc(F)cc2F)n1 [Compound 1-44, N-(3,5-Difluoropyridin-2-yl)-3-(3-methyl-1H-pyrazol-4-yl)-1,2,4-thiadiazol-5-amine]
28 | 193 °C | – | Cc1sc(Nc2ccccn2)nc1-c1cnn(S(C)(=O)=O)c1 [Compound 1-45, 5-Methyl-4-(1-(methylsulfonyl)-1H-pyrazol-4-yl)-N-(pyridin-2-yl)thiazol-2-amine]
29 | 276 to 278 °C | – | CCc1cccc(Nc2nc(-c3cn[nH]c3)c(C)s2)n1 [Compound 1-48, N-(6-Ethylpyridin-2-yl)-5-methyl-4-(1H-pyrazol-4-yl)thiazol-2-amine]
30 | 297 to 298 °C | – | Cc1sc(Nc2ccccn2)nc1-c1cnn(C(=O)NC(C)C)c1 [Compound 1-50, N-Isopropyl-4-(5-methyl-2-(pyridin-2-ylamino)thiazol-4-yl)-1H-pyrazole-1-carboxamide]
31 | 278 to 282 °C | – | Cc1cccc(Nc2nc(-c3cn[nH]c3)c(Cl)s2)n1 [Compound 1-52, 5-Chloro-N-(6-methylpyridin-2-yl)-4-(1H-pyrazol-4-yl)thiazol-2-amine]
32 | – | < 0.5 | Fc1sc(Nc2ccccn2)nc1-c1cn[nH]c1 [Compound 1-56, 5-Fluoro-4-(1H-pyrazol-4-yl)-N-(pyridin-2-yl)thiazol-2-amine]
33 | 250 °C (dec.) | – | OCc1sc(Nc2ccccn2)nc1-c1cn[nH]c1 [Compound 1-57, (4-(1H-Pyrazol-4-yl)-2-(pyridin-2-ylamino)thiazol-5-yl)methanol]
34 | 270 °C (dec.) | – | Cc1sc(Nc2ccccn2)nc1-c1cnn(C(=O)NC2CC2)c1 [Compound 1-59, N-Cyclopropyl-4-(5-methyl-2-(pyridin-2-ylamino)thiazol-4-yl)-1H-pyrazole-1-carboxamide]
35 | 198 to 199 °C | – | Fc1ccc(F)c(Nc2cccc(-c3cn[nH]c3)n2)c1 [Compound 2-1, N-(2,5-Difluorophenyl)-6-(1H-pyrazol-4-yl)pyridin-2-amine]
